Measured values from PubChem BioAssay AID1963962 (Molecular Pharmacology Branch, DTP, NCI, 2024).
pIC50: −log10 of the molar value.

System: 967376-340-R-J2-PDC multicell spheroid viability
Experiment: Anticancer human tumor 967376-340-R-J2-PDC patient-derived colon adenocarcinoma cell line growth inhibition [PI3K]
Details: for pIC50: curve of first compound; for viability, T/C: stronger effect = lower value
Summary of the method: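 We assembled tumor spheroids that included a stromal compartment of HUVEC and MSCs, then exposed them to targeted agents alone and together with PI3K pathway inhibitors. Concentration series descended by half-log from clinically achievable Cmax levels. Viability served as the endpoint.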

[1] = second compound 0.0316 µM, first compound 0.0316 µM
[2] = second compound 0.0316 µM, first compound 0.1 µM
[3] = second compound 0.0316 µM, first compound 0.316 µM
[4] = second compound 0.0316 µM, first compound 1 µM
[5] = second compound 0.1 µM, first compound 0.0316 µM
[6] = second compound 0.1 µM, first compound 0.1 µM
[7] = second compound 0.1 µM, first compound 0.316 µM
[8] = second compound 0.1 µM, first compound 1 µM
[9] = second compound 0.316 µM, first compound 0.0316 µM
[10] = second compound 0.316 µM, first compound 0.1 µM
[11] = second compound 0.316 µM, first compound 0.316 µM
[12] = second compound 0.316 µM, first compound 1 µM
[13] = second compound 1 µM, first compound 0.0316 µM
[14] = second compound 1 µM, first compound 0.1 µM
[15] = second compound 1 µM, first compound 0.316 µM
[16] = second compound 1 µM, first compound 1 µM
[17] = second compound 3.16 µM, first compound 0.0316 µM
[18] = second compound 3.16 µM, first compound 0.1 µM
[19] = second compound 3.16 µM, first compound 0.316 µM
[20] = second compound 3.16 µM, first compound 1 µM
[21] = second compound 10 µM, first compound 0.0316 µM
[22] = second compound 10 µM, first compound 0.1 µM
[23] = second compound 10 µM, first compound 0.316 µM
[24] = second compound 10 µM, first compound 1 µM
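Also: spheroids exposed to agents for 7 days before read-out.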
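For viability, T/C in this document: luminescence used as surrogate of cell viability.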

Structure (SMILES): CC(C)NCC(C(=O)N1CCN(c2ncnc3c2C(C)CC3O)CC1)c1ccc(Cl)cc1 (centres undefined) + CC(Nc1ncnc2nc[nH]c12)c1cc2cccc(Cl)c2c(=O)n1-c1ccccc1
- pIC50 (second compound 0.0316 µM): < 5.00
- pIC50 (second compound 0.1 µM): < 5.00
- pIC50 (second compound 0.316 µM): < 5.00
- pIC50 (second compound 1 µM): < 5.00
- pIC50 (second compound 3.16 µM): < 5.00
- pIC50 (second compound 10 µM): < 5.00
- viability, T/C [1]: 100%
- viability, T/C [2]: 80.4%
- viability, T/C [3]: 101%
- viability, T/C [4]: 96.1%
- viability, T/C (second compound 0.0316 µM, first compound 3.16 µM): 88.6%
- viability, T/C (second compound 0.0316 µM, first compound 10 µM): 86.5%
- viability, T/C [5]: 102%
- viability, T/C [6]: 85%
- viability, T/C [7]: 85.4%
- viability, T/C [8]: 83.5%
- viability, T/C (second compound 0.1 µM, first compound 3.16 µM): 84.8%
- viability, T/C (second compound 0.1 µM, first compound 10 µM): 65.1%
- viability, T/C [9]: 111%
- viability, T/C [10]: 104%
- viability, T/C [11]: 101%
- viability, T/C [12]: 96.7%
- viability, T/C (second compound 0.316 µM, first compound 3.16 µM): 90.7%
- viability, T/C (second compound 0.316 µM, first compound 10 µM): 78.5%
- viability, T/C [13]: 84.2%
- viability, T/C [14]: 90.5%
- viability, T/C [15]: 83.9%
- viability, T/C [16]: 102%
- viability, T/C (second compound 1 µM, first compound 3.16 µM): 87.4%
- viability, T/C (second compound 1 µM, first compound 10 µM): 77.1%
- viability, T/C [17]: 94%
- viability, T/C [18]: 64.8%
- viability, T/C [19]: 77.5%
- viability, T/C [20]: 91.1%
- viability, T/C (second compound 3.16 µM, first compound 3.16 µM): 93.1%
- viability, T/C (second compound 3.16 µM, first compound 10 µM): 79.4%
- viability, T/C [21]: 94.8%
- viability, T/C [22]: 90.5%
- viability, T/C [23]: 68.4%
- viability, T/C [24]: 94.2%
- viability, T/C (second compound 10 µM, first compound 3.16 µM): 76.2%
- viability, T/C (second compound 10 µM, first compound 10 µM): 86.9%

Structure (SMILES): CCN1CCN(Cc2ccc(Nc3ncc(F)c(-c4cc(F)c5nc(C)n(C(C)C)c5c4)n3)nc2)CC1 + CC(Nc1ncnc2nc[nH]c12)c1cc2cccc(Cl)c2c(=O)n1-c1ccccc1
- pIC50 (second compound 0.0316 µM): < 6.00
- pIC50 (second compound 0.1 µM): < 6.00
- pIC50 (second compound 0.316 µM): < 6.00
- pIC50 (second compound 1 µM): < 6.00
- pIC50 (second compound 3.16 µM): < 6.00
- pIC50 (second compound 10 µM): < 6.00
- viability, T/C (second compound 0.0316 µM, first compound 0.00316 µM): 93.1%
- viability, T/C (second compound 0.0316 µM, first compound 0.01 µM): 95.1%
- viability, T/C [1]: 91.3%
- viability, T/C [2]: 73.8%
- viability, T/C [3]: 88.5%
- viability, T/C [4]: 70.1%
- viability, T/C (second compound 0.1 µM, first compound 0.00316 µM): 103%
- viability, T/C (second compound 0.1 µM, first compound 0.01 µM): 106%
- viability, T/C [5]: 74.9%
- viability, T/C [6]: 87.9%
- viability, T/C [7]: 74.4%
- viability, T/C [8]: 86.8%
- viability, T/C (second compound 0.316 µM, first compound 0.00316 µM): 113%
- viability, T/C (second compound 0.316 µM, first compound 0.01 µM): 95.7%
- viability, T/C [9]: 100%
- viability, T/C [10]: 83.9%
- viability, T/C [11]: 79.5%
- viability, T/C [12]: 65.1%
- viability, T/C (second compound 1 µM, first compound 0.00316 µM): 111%
- viability, T/C (second compound 1 µM, first compound 0.01 µM): 87%
- viability, T/C [13]: 86.8%
- viability, T/C [14]: 80%
- viability, T/C [15]: 78.6%
- viability, T/C [16]: 58.6%
- viability, T/C (second compound 3.16 µM, first compound 0.00316 µM): 95.7%
- viability, T/C (second compound 3.16 µM, first compound 0.01 µM): 77.7%
- viability, T/C [17]: 94.5%
- viability, T/C [18]: 72.6%
- viability, T/C [19]: 75.9%
- viability, T/C [20]: 60%
- viability, T/C (second compound 10 µM, first compound 0.00316 µM): 92%
- viability, T/C (second compound 10 µM, first compound 0.01 µM): 85.9%
- viability, T/C [21]: 72%
- viability, T/C [22]: 62%
- viability, T/C [23]: 67.3%
- viability, T/C [24]: 48.6%
